According to patent US10640527B2, “Mesitylene-cored amphiphiles and uses thereof” (Industry-University Cooperation Foundation Hanyang …, priority 2016, dated 2020):

Key:
[1] = Hydrodynamic radius / size distribution of micelles by dynamic light scattering (DLS); assay type: physicochemical; details: 1.0 wt % amphiphile
Description: A method of measuring a radius of the micelle is not particularly limited, and those methods widely known in the related field may be used, for example, a dynamic light scattering (DLS) experiment may be used for measurement.
(§1) Specifically, a CMC was measured by a fluorophorescent encapsulation method using diphenylhexatriene (DPH) and an Rh of a micelle formed by each formulation (1.0 wt %) was measured using a dynamic light scattering (DLS) experiment.

[2] = Critical micelle concentration by fluorophore encapsulation using diphenylhexatriene (DPH); assay type: physicochemical; details: aqueous solution
Description: A method of measuring a CMC is not particularly limited, and those methods widely known in the related field may be used. For example, a CMC may be measured by a fluorophore encapsulation method using diphenylhexatriene (DPH).
as §1

[3] = molecular target: T1, uric acid-xanthine/H+ symporter (UapA) (Emericella nidulans, UniProt Q07307, G411V); test: UapA structural (thermal) stability, CPM assay; assay type: biochemical, Aspergillus nidulans; details: for effect in maintaining folded UapA, ranking among MGAs: CMC+0.2 wt %, 40° C., 120 minutes
T1 construct: GFP; made in house; host or cells: Saccharomyces cerevisiae FGY217
Description: An experiment for measuring the structural stability of uric acid-xanthine/H^+ symporter (UapA) solubilized in MGAs in an aqueous solution was performed. The structural stability of UapA was measured using a CPM assay, and was measured at MGAs and DDM concentrations of (a) CMC+0.04 wt %, or (b) CMC+0.2 wt %.
Specifically, a UapA protein is a uric acid-xanthine/H^+ symporter in Aspergillus nidulans. Protein stability was measured by fluorescence spectroscopy using N-[4-(7-diethylamino-4-methyl-3-coumarinyl)phenyl]maleimide (CPM) which is a sulfhydryl-specific fluorophore. A free sulfhydryl group of a cysteine residue is in the interior of a protein, but becomes accessible to a solvent upon protein unfolding. CPM becomes fluorescent by a reaction with the free thiol, and thus provides as a protein unfolding sensor. In order to measure thermal stability, first, UapAG411V1-11 was expressed in the Saccharomyces cerevisiae FGY217 strain by fusion with GFP, and separated in a sample buffer (20 mM Tris (pH 7.5), 150 mM NaCl, 0.03% DDM and 1 mM xanthine) according to a method described in a research article (Mol. Membr. Biol. 2013, 30, 32-42) by J. Leung et al. A UapA protein was concentrated to about 10 mg/ml using a 100 kDa molecular weight cut-off filter (Millipore). The concentrated protein was diluted to a ratio of 1:150 with each buffer including DDM or MGA (MGA-C10, MGA-C11, MGA-C12, MGA-C13, MGA-C14 or MGA-C15) at a concentration of CMC+0.04 wt % or CMC+0.2 wt % in a Greiner 96-well plate. A CPM dye (Invitrogen) stored in DMSO (Sigma) was diluted with a dye buffer (20 mM Tris (pH 7.5), 150 mM NaCl, 0.03% DDM and 5 mM EDTA), and 3 μl of the diluted dye was added to each protein sample. The reaction mixture was incubated at 40° C. for 120 minutes. Fluorescence emission was monitored using a microplate spectrofluorometer, with an excitation wavelength at 387 nm and an emission wavelength at 463 nm. Relative maximum fluorescence was used to calculate a percentage of relative folded protein remaining after 120 minutes at 40° C. Relative unfolded proteins were plotted against time using GraphPad Prism.
Specifically, a UapA stabilization effect was evaluated by the same method as in Experimental Example 2 using MGA-C13, MGA-C14, MNG-3 or DDM at a concentration of (a) CMC+0.04 wt % or (b) CMC+0.2 wt %.

[4] = tested on: leucine transporter (LeuT); test: LeuT long-term stability, [3H]-Leu binding by scintillation proximity assay (SPA); assay type: biochemical, Aquifex aeolicus
Description: An experiment for measuring the structural stability of LeuT proteins according to MGAs (MGA-C11, MGA-C12, MGA-C13, MGA-C14 and MGA-C15) was performed. Each amphiphile was used at a concentration of (a) CMC+0.04 wt % or (b) CMC+0.2 wt %, a ligand-binding activity of LeuT was measured by scintillation proximity assay (SPA) using [^3H]-Leucine. The measurement was performed at regular intervals at room temperature during 12 days of incubation.
Specifically, a thermophilic bacteria Aquifex aeolicus-derived wild type LeuT was purified using a previously described method (Nature, G. Deckert et al., 1998, 392, 353-358). To sum up, the LeuT was expressed in E. coli C41 (DE3) cultured in a lysogeny broth medium supplemented with 0.1 mg/ml ampicillin. Expression of proteins was induced by adding isopropyl β-D-thiogalactopyranoside to a final concentration of 0.1 mM.
A cell membrane was separated from a crushed cell (Constant Systems Homogenizers, Kennesaw, Ga.), and solubilized in 1% (w/v) n-dodecyl-β-D-maltopyranoside (DDM; Affymetrix, Santa Clara, Calif.). After solubilization, LeuT was fixed in a Ni^2+-NTA resin (Life Technologies, Denmark), and eluted in 20 mM Tris-HCl (pH 7.5), 199 mM KCl, 1 mM NaCl, 0.05% (w/v) DDM and 300 mM imidazole. Thereafter, purified LeuT (about 1.5 mg/ml) was diluted tenfold with a buffer supplemented with MGA (MGA-C11, MGA-C12, MGA-C13, MGA-C14 or MGA-C15) or DDM to the final concentration of CMC+0.04% (w/v) or CMC+0.2% (w/v) while excluding DDM and imidazole from the above-described buffers. Protein samples were stored at room temperature for 12 days, and protein activity was determined by measuring [^3H]-Leu binding by SPA at a specified time. SPA was carried out using 450 mM NaCl and buffers containing each MGA, and a SPA reaction was performed in the presence of 20 nM [^3H]-Leu and 1.25 mg/ml copper chelate (His-Tag) YSi beads (Perkin Elmer, Denmark). [^3H]-Leu binding was measured using a MicroBeta liquid scintillation counter (Perkin Elmer).

[5] = molecular target: T2, melibiose permease (MelBSt) (Salmonella typhimurium, UniProt P30878); test: MelBSt extraction from membranes and thermal stability, SDS-PAGE and Western blotting; assay type: biochemical; details: 1.5 wt %, 90 minutes
T2 construct: made in house; host or cells: DW2 cells (ΔmelB and ΔlacZY), Salmonella typhimurium DW2
Description: An experiment for measuring the structural stability of Salmonella typhimurium melibiose permease (MelBSt) according to MGAs in an aqueous solution was performed. After MelBSt proteins were extracted from a membrane using MGAs or DDM, the amount and structure of extracted proteins were analyzed by SDS-PAGE and western blotting. The concentration of used amphiphiles was 1.5 wt %, and proteins were extracted at four different temperatures of 0, 45, 55 and 65° C. to evaluate both the protein extraction efficiency and stabilizing ability of a compound. A membrane sample which had not been treated with MGAs or DDM was used as a control group.
Specifically, MelBSt stability solubilized in DDM or MGAs was evaluated according to a method described in 2010 in a research article (P. S. Chae et al., Nat. Methods 2010, 7, 1003-1008.) by the inventors of the present invention. Proteins (MelBSt) were produced using plasmid pK95ΔAHB/WT MelBSt/CH10 encoding the wild-type MelB with a 6-His tag at the C-terminus and Salmonella typhimurium DW2 cells (ΔmelB and ΔlacZY). Cell growth and membrane preparation was performed according to a method described in a research article (Nat. Commun. 2014, 5, 3009) by A. S. Ethayathulla, et al. A protein assay was carried out using a Micro BCA kit (Thermo Scientific, Rockford, Ill.). In order to measure protein solubilization, a membrane sample (final protein concentration was 10 mg/mL) containing MelBSt was incubated with a solubilization buffer (20 mM sodium phosphate, pH 7.5, 200 mM NaCl, 10% glycerol and 20 mM melibiose) and 1.5% (w/v) DDM or MGA (MGA-C10, MGA-C11, MGA-C12, MGA-C13, MGA-C14 or MGA-C15) at four different temperatures of 0, 45, 55 and 65° C. for 90 minutes. After ultracentrifugation at 355,590 g in a Beckman Optima™ MAX Ultracentrifuge using a TLA-100 rotor for 45 min at 4° C., 20 μg of a protein was separated by SDS-16% PAGE and immunoblotted with a Penta-His-HRP antibody (Qiagen, Germantown, Md.). MelBSt was measured by an ImageQuant LAS 4000 Biomolecular Imager (GE Healthcare Life Sciences) using a SuperSignal West Pico chemiluminescent substrate.

T1 sequence (Q07307 12-574 G411V): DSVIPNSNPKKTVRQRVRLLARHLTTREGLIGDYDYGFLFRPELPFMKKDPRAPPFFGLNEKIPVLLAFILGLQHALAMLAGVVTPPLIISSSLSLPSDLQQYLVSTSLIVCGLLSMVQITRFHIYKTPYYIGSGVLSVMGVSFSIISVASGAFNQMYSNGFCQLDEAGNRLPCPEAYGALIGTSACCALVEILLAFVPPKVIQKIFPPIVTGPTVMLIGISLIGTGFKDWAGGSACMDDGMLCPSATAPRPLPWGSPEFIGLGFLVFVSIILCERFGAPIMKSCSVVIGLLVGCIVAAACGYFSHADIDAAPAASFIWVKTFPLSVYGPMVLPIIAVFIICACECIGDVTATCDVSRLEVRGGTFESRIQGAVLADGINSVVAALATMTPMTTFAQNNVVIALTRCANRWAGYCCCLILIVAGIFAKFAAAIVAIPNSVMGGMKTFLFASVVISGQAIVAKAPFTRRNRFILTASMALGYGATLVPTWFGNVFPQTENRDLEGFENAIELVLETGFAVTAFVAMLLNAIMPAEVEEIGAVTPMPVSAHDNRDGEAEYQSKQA
T2 sequence (P30878 whole entry): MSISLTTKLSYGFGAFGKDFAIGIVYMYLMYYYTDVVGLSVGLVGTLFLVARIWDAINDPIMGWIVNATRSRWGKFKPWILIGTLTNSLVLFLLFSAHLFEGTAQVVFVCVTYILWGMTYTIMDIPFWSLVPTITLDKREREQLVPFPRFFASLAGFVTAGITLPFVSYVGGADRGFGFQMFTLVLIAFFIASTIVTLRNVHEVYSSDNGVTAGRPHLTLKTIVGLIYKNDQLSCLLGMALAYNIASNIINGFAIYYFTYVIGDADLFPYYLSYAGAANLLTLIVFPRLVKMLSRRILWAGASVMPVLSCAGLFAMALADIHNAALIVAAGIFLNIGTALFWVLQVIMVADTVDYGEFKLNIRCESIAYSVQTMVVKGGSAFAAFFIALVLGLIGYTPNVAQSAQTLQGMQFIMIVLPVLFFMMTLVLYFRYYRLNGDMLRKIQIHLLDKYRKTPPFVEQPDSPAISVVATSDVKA

SMILES | Rh (nm), hydrodynamic radius of micelle [1] | CMC [2] | CMC (wt %) [2] | effect in maintaining folded UapA, ranking among MGAs [3] | preservation of long-term stability of LeuT, comparison with DDM and ranking ([4]; 12 days at room temperature, CMC+0.04 wt % or CMC+0.2 wt %) | LeuT ligand-binding activity retained, % of initial activity ([4]; after 12 days of incubation at room temperature) | UapA stabilization effect compared with MNG-3 ([3]; CMC+0.04 wt % or CMC+0.2 wt %, FIG. 25) | MelBSt protein extraction efficiency compared with DDM ([5]; 45° C.) | MelBSt extraction ability compared with DDM ([5]; 55° C.)
CCCCCCCCCCC(CO[C@@H]1OC(CO)[C@@H](O)C(O)C1O)(CO[C@@H]1OC(CO)[C@@H](O)C(O)C1O)Cc1cc(CC(CCCCCCCCCC)(CO[C@@H]2OC(CO)[C@@H](O)C(O)C2O)CO[C@@H]2OC(CO)[C@@H](O)C(O)C2O)cc(CC(CCCCCCCCCC)(CO[C@@H]2OC(CO)[C@@H](O)C(O)C2O)CO[C@@H]2OC(CO)[C@@H](O)C(O)C2O)c1 (stereo partly drawn) [MGA-C10] | 2.9 ± 0.01 nm | ~8 µM | ~0.0014 wt % | less effective than the above-described MGAs, but still higher than DDM |  |  |  |  | 
CCCCCCCCCCCC(CO[C@@H]1OC(CO)[C@@H](O)C(O)C1O)(CO[C@@H]1OC(CO)[C@@H](O)C(O)C1O)Cc1cc(CC(CCCCCCCCCCC)(CO[C@@H]2OC(CO)[C@@H](O)C(O)C2O)CO[C@@H]2OC(CO)[C@@H](O)C(O)C2O)cc(CC(CCCCCCCCCCC)(CO[C@@H]2OC(CO)[C@@H](O)C(O)C2O)CO[C@@H]2OC(CO)[C@@H](O)C(O)C2O)c1 (stereo partly drawn) [MGA-C11] | 3.0 ± 0.04 nm | ~5 µM | ~0.009 wt % | less effective than the above-described MGAs, but still higher than DDM | the most excellent MGA | ~90% |  |  | 
CCCCCCCCCCCCCCC(CO[C@@H]1OC(CO)[C@@H](O)C(O)C1O)(CO[C@@H]1OC(CO)[C@@H](O)C(O)C1O)Cc1cc(CC(CCCCCCCCCCCCCC)(CO[C@@H]2OC(CO)[C@@H](O)C(O)C2O)CO[C@@H]2OC(CO)[C@@H](O)C(O)C2O)cc(CC(CCCCCCCCCCCCCC)(CO[C@@H]2OC(CO)[C@@H](O)C(O)C2O)CO[C@@H]2OC(CO)[C@@H](O)C(O)C2O)c1 (stereo partly drawn) [MGA-C14] | 3.4 ± 0.04 nm | ~2 µM | ~0.0004 wt % | had the highest effect |  |  | far greater UapA stabilization effect than MNG-3 | same level of protein extraction efficiency as DDM | higher MelBSt extraction ability than DDM
CCCCCCCCCCCCC(CO[C@@H]1OC(CO)[C@@H](O)C(O)C1O)(CO[C@@H]1OC(CO)[C@@H](O)C(O)C1O)Cc1cc(CC(CCCCCCCCCCCC)(CO[C@@H]2OC(CO)[C@@H](O)C(O)C2O)CO[C@@H]2OC(CO)[C@@H](O)C(O)C2O)cc(CC(CCCCCCCCCCCC)(CO[C@@H]2OC(CO)[C@@H](O)C(O)C2O)CO[C@@H]2OC(CO)[C@@H](O)C(O)C2O)c1 (stereo partly drawn) [MGA-C12] | 3.1 ± 0.03 nm | ~3.5 µM | ~0.0006 wt % | less effective than the above-described MGAs, but still higher than DDM |  |  |  |  | 
